Key:
[1] = target: T1, ATP-binding cassette sub-family C member 2 (Rattus norvegicus, UniProt Q63120); assay: TP_TRANSPORTER: inhibition of Naf-GlcA uptake (Naf-GlcA: 0.1 uM) in bile canalicular membrane vesicles of Wistar rat; assay type: functional, cell membranes, Bile canalicular membrane vesicle
[2] = target: T1, ATP-binding cassette sub-family C member 2; assay: TP_TRANSPORTER: uptake in bile canalicular membrane vesicles from Wistar/TR- rat; assay type: functional, cell membranes, Bile canalicular membrane vesicle

T1 sequence (Q63120 whole entry): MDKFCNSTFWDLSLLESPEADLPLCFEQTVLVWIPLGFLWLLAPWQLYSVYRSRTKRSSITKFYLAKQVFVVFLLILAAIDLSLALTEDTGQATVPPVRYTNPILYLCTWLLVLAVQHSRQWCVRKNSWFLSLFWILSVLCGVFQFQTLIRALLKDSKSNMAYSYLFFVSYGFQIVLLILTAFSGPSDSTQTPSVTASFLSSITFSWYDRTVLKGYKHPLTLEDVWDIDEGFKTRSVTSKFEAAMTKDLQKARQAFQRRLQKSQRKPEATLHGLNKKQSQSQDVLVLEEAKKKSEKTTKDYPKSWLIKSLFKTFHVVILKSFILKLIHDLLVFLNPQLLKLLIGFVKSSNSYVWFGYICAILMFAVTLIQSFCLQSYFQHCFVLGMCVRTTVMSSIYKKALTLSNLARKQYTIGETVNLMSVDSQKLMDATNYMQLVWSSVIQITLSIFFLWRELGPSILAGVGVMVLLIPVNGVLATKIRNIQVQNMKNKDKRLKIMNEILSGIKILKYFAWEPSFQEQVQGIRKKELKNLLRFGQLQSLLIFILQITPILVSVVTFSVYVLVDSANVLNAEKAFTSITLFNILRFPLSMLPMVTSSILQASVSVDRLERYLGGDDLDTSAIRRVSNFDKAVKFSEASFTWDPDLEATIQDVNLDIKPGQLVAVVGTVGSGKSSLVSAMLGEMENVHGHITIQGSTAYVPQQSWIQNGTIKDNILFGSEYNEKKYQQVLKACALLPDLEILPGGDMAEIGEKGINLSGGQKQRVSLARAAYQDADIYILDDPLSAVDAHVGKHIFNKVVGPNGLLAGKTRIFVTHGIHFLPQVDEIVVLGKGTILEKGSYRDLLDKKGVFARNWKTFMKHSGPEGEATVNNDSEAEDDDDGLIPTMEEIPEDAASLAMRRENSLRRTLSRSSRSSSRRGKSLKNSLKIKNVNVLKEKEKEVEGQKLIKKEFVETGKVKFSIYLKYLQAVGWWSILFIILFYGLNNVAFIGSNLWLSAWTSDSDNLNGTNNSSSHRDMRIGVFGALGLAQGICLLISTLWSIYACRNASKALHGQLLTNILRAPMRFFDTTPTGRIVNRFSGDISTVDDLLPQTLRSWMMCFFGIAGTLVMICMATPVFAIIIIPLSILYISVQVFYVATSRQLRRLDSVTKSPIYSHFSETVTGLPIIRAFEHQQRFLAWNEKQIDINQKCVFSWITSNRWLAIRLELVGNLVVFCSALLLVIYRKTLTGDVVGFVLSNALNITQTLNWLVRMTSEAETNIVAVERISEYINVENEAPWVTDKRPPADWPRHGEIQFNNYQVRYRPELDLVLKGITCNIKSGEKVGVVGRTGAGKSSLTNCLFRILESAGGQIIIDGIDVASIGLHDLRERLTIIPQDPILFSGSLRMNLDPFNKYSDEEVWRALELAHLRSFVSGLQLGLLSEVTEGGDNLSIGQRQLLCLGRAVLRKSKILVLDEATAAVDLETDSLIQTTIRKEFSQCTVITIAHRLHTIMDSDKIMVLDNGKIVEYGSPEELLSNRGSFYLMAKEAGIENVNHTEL

| Activity [2] | Compound | IC50 [1] |
| --- | --- | --- |
|  | N[C@@H](CCC(=O)N[C@H](CSc1ccc([N+](=O)[O-])cc1[N+](=O)[O-])C(=O)NCC(=O)O)C(=O)O | 12 µM |
|  | CCCCC/C=C\C\C=C/C=C/C=C/[C@@H](SC[C@@H](NC(=O)CC[C@H](N)C(=O)O)C(=O)NCC(=O)O)[C@@H](O)CCCC(=O)O [LEUKOTRIEN C4] | 0.2 µM |
| substrate [+] | CC(C)(Oc1ccc(C2CCCc3ccccc32)cc1)C(=O)O[C@@H]1O[C@H](O)[C@@H](O)[C@H](O)[C@H]1O (stereo partly drawn) [NAFENOPIN GLUCURONIDE] |  |
